Structures are written as SMILES.

T1 sequence (P08581 25-1390): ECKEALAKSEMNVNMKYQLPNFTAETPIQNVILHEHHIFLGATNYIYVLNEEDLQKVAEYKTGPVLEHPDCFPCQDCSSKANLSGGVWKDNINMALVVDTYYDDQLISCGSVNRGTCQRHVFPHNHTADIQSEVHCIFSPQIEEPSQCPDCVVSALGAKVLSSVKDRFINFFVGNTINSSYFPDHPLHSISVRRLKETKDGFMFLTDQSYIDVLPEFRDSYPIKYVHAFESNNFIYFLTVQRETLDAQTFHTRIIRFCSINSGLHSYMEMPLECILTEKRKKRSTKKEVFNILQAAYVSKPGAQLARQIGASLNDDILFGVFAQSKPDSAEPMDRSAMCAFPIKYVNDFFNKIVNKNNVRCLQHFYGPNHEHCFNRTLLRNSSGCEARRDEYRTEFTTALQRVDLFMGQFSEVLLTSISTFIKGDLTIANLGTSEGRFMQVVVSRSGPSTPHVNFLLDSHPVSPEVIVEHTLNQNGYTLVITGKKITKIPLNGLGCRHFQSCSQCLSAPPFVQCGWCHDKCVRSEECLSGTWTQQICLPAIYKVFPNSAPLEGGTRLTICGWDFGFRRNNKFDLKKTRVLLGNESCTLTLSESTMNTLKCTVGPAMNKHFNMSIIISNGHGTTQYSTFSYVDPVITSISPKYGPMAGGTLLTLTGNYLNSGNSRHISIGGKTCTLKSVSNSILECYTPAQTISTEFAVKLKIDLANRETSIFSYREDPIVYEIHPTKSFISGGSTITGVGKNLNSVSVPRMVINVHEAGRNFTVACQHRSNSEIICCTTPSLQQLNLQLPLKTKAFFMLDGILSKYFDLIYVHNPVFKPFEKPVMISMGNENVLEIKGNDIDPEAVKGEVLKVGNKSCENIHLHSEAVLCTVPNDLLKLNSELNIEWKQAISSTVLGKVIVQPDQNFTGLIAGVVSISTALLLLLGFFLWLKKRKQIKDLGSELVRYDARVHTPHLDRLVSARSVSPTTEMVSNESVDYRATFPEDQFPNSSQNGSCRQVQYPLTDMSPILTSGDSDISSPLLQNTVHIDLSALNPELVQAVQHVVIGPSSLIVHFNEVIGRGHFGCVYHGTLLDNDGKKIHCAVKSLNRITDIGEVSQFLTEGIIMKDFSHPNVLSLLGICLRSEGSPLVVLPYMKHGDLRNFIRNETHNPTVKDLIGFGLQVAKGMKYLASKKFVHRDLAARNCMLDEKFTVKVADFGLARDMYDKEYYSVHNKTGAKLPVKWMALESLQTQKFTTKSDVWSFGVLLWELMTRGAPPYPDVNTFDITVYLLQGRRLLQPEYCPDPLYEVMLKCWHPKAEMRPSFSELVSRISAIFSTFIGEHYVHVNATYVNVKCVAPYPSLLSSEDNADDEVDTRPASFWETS

This test concerns the target T1, met (HGF receptor) in human gastric cancer cells MKN45 (Homo sapiens, UniProt P08581).
T1 construct: endogenous in cells; host or cells: MKN45 human gastric cancer cells
Briefly: Inhibitory activity against met-autophosphorylation using ELISA method (2), MKN45 cells, HGF-independent. In kind it is cell-based. The gist of the method:
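MKN45 cells, 3×10^4 per well in RPMI with 0.1% FCS overnight, were exposed to compound in DMSO for 1 h at 37 °C without HGF. Lysates were captured on anti-phosphotyrosine (PY20) plates, Met detected with anti-Met and peroxidase secondary antibody, absorbance at 450 nm.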
Background: ELISA stands for enzyme-linked immunosorbent assay.
In turn, `COc1cc2nccc(Oc3ccc(NC(=O)C(C)(C)C(=O)Nc4ccc(F)cc4F)cc3)c2cc1OC` [Example 104, N-(2,4-difluorophenyl)-N′-[4-(6,7-dimethoxy-quinolin-4-yloxy)phenyl]-2,2-dimethylmalonamide] displayed a half-maximal inhibitory concentration (IC50) of 344 nM.

In turn, `COc1cc2c(Oc3ccc(NC(=S)NC(=O)Cc4ccccc4)cc3F)ccnc2cc1OCCCn1ccnc1` [Example 307, 1-{3-Fluoro-4-[7-(3-imidazol-1-yl-propoxy)-6-methoxy-quinolin-4-yloxy]-phenyl}-3-phenylacetyl-thiourea] returned an IC50 of 57.4 nM.

In the case of `COc1cc2nccc(Oc3ccc(NC(=O)NC(=O)Cc4cccs4)cc3Cl)c2cc1OC` [Example 32, 1-[3-chloro-4-(6,7-dimethoxyquinolin-4-yloxy)-phenyl]-3-(2-thiophen-2-ylacetyl)urea], the IC50 was determined as 171 nM.

In turn, `COc1cc2nccc(Oc3ccc(NC(=S)NC(=O)Cc4ccccc4C)c(F)c3)c2cc1OC` [Example 170, 1-[4-(6,7-dimethoxyquinolin-4-yloxy)-2-fluorophenyl]-3-(2-o-tolylacetyl)thiourea] came in with an IC50 of 274 nM.

In turn, `COc1cc2c(Oc3ccc(NC(=S)NC(=O)Cc4ccccc4Cl)cc3F)ccnc2cc1OCC(O)CN1CCCC1` (centres unmarked) [Example 317, 1-[2-(2-Chloro-phenyl)-acetyl]-3-{3-fluoro-4-[7-(2-hydroxy-3-pyrrolidin-1-yl-propoxy)-6-methoxy-quinolin-4-yloxy]-phenyl}-thiourea] returned an IC50 of 42.2 nM.

`COc1cc2nccc(Oc3ccc(NC(=O)NC(=O)CSC4CCCCC4)cc3)c2cc1OC` [Example 113, 1-(2-cyclohexylsulfanylacetyl)-3-[4-(6,7-dimethoxyquinolin-4-yloxy)phenyl]urea] returned an IC50 of 653 nM.

`COc1cc2nccc(Oc3ccc(NC(=O)NC(=O)Cc4cccc(F)c4F)c(F)c3)c2cc1OC` [Example 138, 1-[2-(2,3-difluorophenyl)acetyl]-3-[4-(6,7-dimethoxyquinolin-4-yloxy)-2-fluorophenyl]urea]: the IC50 was 284 nM.

`CCN(CC)CC(=O)NC(=O)Nc1ccc(Oc2ccnc3cc(OC)c(OC)cc23)c(Cl)c1` [Example 110, 1-[3-chloro-4-(6,7-dimethoxyquinolin-4-yloxy)phenyl]-3-(2-diethylaminoacetyl)urea] had an IC50 of 2380 nM.

On to `COc1cccc(C(=O)NC(=S)Nc2ccc(Oc3ccnc4cc(OC)c(OC)cc34)c(F)c2)c1` [Example 144, 1-[4-(6,7-dimethoxyquinolin-4-yloxy)-3-fluorophenyl]-3-(3-methoxybenzoyl)thiourea], for which the IC50 stood at 699 nM.

Regarding `COc1cc2nccc(Oc3ccc(NC(=O)NC(=O)Cc4ccc(F)cc4)cc3Cl)c2cc1OC` [Example 24, 1-[3-chloro-4-(6,7-dimethoxyquinolin-4-yloxy)phenyl]-3-[2-(4-fluorophenyl)acetyl]urea], the IC50 is 27.7 nM.

Compound `COc1cc2nccc(Oc3ccc(NC(=S)NC(=O)Cc4cccc(C)c4)cc3)c2cc1OC` [Example 77, 1-[4-(6,7-dimethoxyquinolin-4-yloxy)phenyl]-3-(2-m-tolylacetyl)thiourea] had an IC50 of 178 nM.

Take `COc1cc2nccc(Oc3ccc(NC(=S)NC(=O)CCC4CCCC4)cc3)c2cc1OC` [Example 161, 1-(3-cyclopentylpropionyl)-3-[4-(6,7-dimethoxyquinolin-4-yloxy)phenyl]thiourea]: the IC50 is 246 nM.

For the compound `COc1cc2c(Oc3ccc(NC(=S)NC(=O)Cc4ccc(C)cc4)cc3F)ccnc2cc1OCCCN1CCOCC1` [Example 304, 1-{3-Fluoro-4-[6-methoxy-7-(3-morpholin-4-yl-propoxy)-quinolin-4-yloxy]-phenyl}-3-(2-p-toluyl-acetyl)-thiourea], it took 65.9 nM to reach half-maximal inhibition (IC50).

Compound `COc1cc2c(Oc3ccc(NC(=O)NC(=O)Cc4ccccc4F)cc3F)ccnc2cc1OCCCN1CCN(C)CC1` [Example 296, 1-(3-Fluoro-4-{6-methoxy-7-[3-(4-methyl-piperazin-1-yl)-propoxy]-quinolin-4-yloxy}-phenyl)-3-[2-(2-fluoro-phenyl)-acetyl]-urea] displayed an IC50 of 19.7 nM.

Compound `CCCCOCC(=O)NC(=S)Nc1ccc(Oc2ccnc3cc(OC)c(OC)cc23)c(F)c1` [Example 167, 1-(2-butoxyacetyl)-3-[4-(6,7-dimethoxy-quinolin-4-yloxy)-3-fluorophenyl]thiourea] came in with an IC50 of 259 nM.

`COc1cc2nccc(Oc3ccc(NC(=O)NC(=O)Cc4ccccc4F)cc3F)c2cc1OC` [Example 27, 1-[4-(6,7-dimethoxyquinolin-4-yloxy)-3-fluorophenyl]-3-[2-(2-fluorophenyl)acetyl]urea] returned an IC50 of 80 nM.

Take `COc1cc2nccc(Oc3ccc(NC(=S)NC(=O)Cc4cccc(C(F)(F)F)c4)cc3F)c2cc1OC` [Example 203, 1-[4-(6,7-dimethoxyquinolin-4-yloxy)-3-fluorophenyl]-3-[2-(3-trifluoromethylphenyl)acetyl]-thiourea]: the IC50 was 281 nM.

`COc1cc2c(Oc3ccc(NC(=S)NC(=O)Cc4ccc(F)cc4)cc3F)ccnc2cc1OCC(O)CN1CCCCC1` (centres unmarked) [Example 329, 1-{3-Fluoro-4-[7-(2-hydroxy-3-piperidin-1-yl-propoxy)-6-methoxy-quinolin-4-yloxy]-phenyl}-3-[2-(4-fluoro-phenyl)-acetyl]-thiourea] registered an IC50 of 51.8 nM.

On to `CCOCCC(=O)NC(=S)Nc1ccc(Oc2ccnc3cc(OC)c(OC)cc23)cc1` [Example 62, 1-[4-(6,7-dimethoxyquinolin-4-yloxy)phenyl]-3-(3-ethoxypropionyl)thiourea], for which the IC50 worked out at 92 nM.

`COc1cc2nccc(Oc3ccc(NC(=S)NC(=O)[C@H](C)c4ccccc4)cc3)c2cc1OC` [Example 158, 1-[4-(6,7-dimethoxyquinolin-4-yloxy)phenyl]-3-(2-phenylpropionyl)thiourea] showed an IC50 of 465 nM.

Turning to `COc1cc2nccc(Oc3ccc(NC(=S)NC(=O)Cc4cccc(Cl)c4)cc3F)c2cc1OC` [Example 173, 1-[2-(3-chlorophenyl)acetyl]-3-[4-(6,7-dimethoxyquinolin-4-yloxy)-3-fluorophenyl]thiourea], the IC50 came out at 222 nM.

`CCN(CC)CCOc1cc2nccc(Oc3ccc(NC(=S)NC(=O)Cc4ccc(F)cc4)cc3F)c2cc1OC` [Example 275, 1-{4-[7-(2-Diethylamino-ethoxy)-6-methoxy-quinolin-4-yloxy]-3-fluoro-phenyl}-3-[2-(4-fluoro-phenyl)-acetyl]-thiourea] yielded an IC50 of 23 nM.

In turn, `COc1ccccc1NC(=O)NC(=O)Nc1ccc(Oc2ccnc3cc(OC)c(OC)cc23)cc1` [Example 266, N-(2-methoxyphenyl)-({[4-(6,7-dimethoxy-quinolin-4-yloxy)anilino]carbonyl}amino)methanamide] returned an IC50 of 181 nM.

For the compound `COc1cc2nccc(Oc3ccc(NC(=O)NC(=O)CN4CCc5ccccc54)c(F)c3)c2cc1OC` [Example 121, 1-[2-(2,3-dihydro-1H-1-indol-1-yl)acetyl]-3-[4-(6,7-dimethoxyquinolin-4-yloxy)-2-fluorophenyl]urea], the IC50 is 338 nM.

Take `COc1cc2nccc(Oc3ccc(NC(=O)CC(=O)Nc4ccc(F)cc4F)c(C)c3)c2cc1OC` [Example 223, N-(2,4-difluorophenyl)-N′-[4-(6,7-dimethoxy-quinolin-4-yloxy)-2-methylphenyl]malonamide]: the midpoint of inhibition, the IC50, lay at 268 nM.

Compound `COc1cc2c(Oc3ccc(NC(=S)NC(=O)Cc4cccc(F)c4)cc3F)ccnc2cc1OCC(O)CN1CCCCC1` (centres unmarked) [Example 324, 1-{3-Fluoro-4-[7-(2-hydroxy-3-piperidin-1-yl-propoxy)-6-methoxy-quinolin-4-yloxy]-phenyl}-3-[2-(3-fluoro-phenyl)-acetyl]-thiourea] returned an IC50 of 23.4 nM.

Consider `COc1cc2nccc(Oc3ccc(NC(=S)NC(=O)CCCC(C)C)c(F)c3)c2cc1OC` [Example 178, 1-[4-(6,7-dimethoxyquinolin-4-yloxy)-2-fluorophenyl]-3-(5-methyl-hexanoyl)thiourea], for which it took 268 nM to reach half-maximal inhibition (IC50).

The compound `COc1cccc(CC(=O)NC(=S)Nc2ccc(Oc3ccnc4cc(OC)c(OC)cc34)cc2F)c1` [Example 185, 1-[4-(6,7-dimethoxyquinolin-4-yloxy)-2-fluorophenyl]-3-[2-(3-methoxyphenyl)acetyl]thiourea] gave an IC50 of 248 nM.

For `COc1cc2nccc(Oc3ccc(NC(=O)NC(=O)Nc4ccccc4Cc4ccccc4)cc3)c2cc1OC` [Example 246, N-(2-benzylphenyl)-({[4-(6,7-dimethoxy-quinolin-4-yloxy)anilino]carbonyl}amino)methanamide], 2910 nM corresponded to half-maximal inhibition (IC50).

`COc1cc2nccc(Oc3ccc(NC(=O)NC(=O)Cc4ccc(F)c(F)c4)c(F)c3)c2cc1OC` [Example 140, 1-[2-(3,4-difluorophenyl)acetyl]-3-[4-(6,7-dimethoxyquinolin-4-yloxy)-2-fluorophenyl]urea] gave an IC50 of 229 nM.

For the compound `COc1cc2nccc(Oc3ccc(NC(=O)NC(=O)Nc4ccccn4)cc3)c2cc1OC` [Example 236, N-(2-pyridyl)-({[4-(6,7-dimethoxyquinolin-4-yloxy)anilino]carbonyl}amino)methanamide], the IC50 came out at 235 nM.

In turn, `COc1cc2nccc(Oc3ccc(NC(=S)NC(=O)CC4CCCCC4)c(F)c3)c2cc1OC` [Example 166, 1-(2-cyclohexylacetyl)-3-[4-(6,7-dimethoxy-quinolin-4-yloxy)-2-fluorophenyl]thiourea] gave an IC50 of 318 nM.

Compound `COc1cc2nccc(Oc3ccc(NC(=S)NC(=O)Cc4ccccc4[N+](=O)[O-])cc3)c2cc1OC` [Example 155, 1-[4-(6,7-dimethoxyquinolin-4-yloxy)phenyl]-3-[2-(2-nitrophenyl)acetyl]thiourea] showed an IC50 of 982 nM.

`CCN(CC)CCCOc1cc2nccc(Oc3ccc(NC(=O)NC(=O)Cc4ccccc4F)cc3F)c2cc1OC` [Example 293, 1-{4-[7-(3-Diethylamino-propoxy)-6-methoxy-quinolin-4-yloxy]-3-fluoro-phenyl}-3-[2-(2-fluoro-phenyl)-acetyl]-urea]: half-maximal inhibition (IC50) required 21.1 nM.

On to `COc1cc2c(Oc3ccc(NC(=O)NC(=O)Cc4ccccc4)cc3F)ccnc2cc1OCCN1CCC(CO)CC1` [Example 283], for which the midpoint of inhibition, the IC50, lay at 14.6 nM.

By IC50 is commonly meant the concentration that inhibits the measured activity by half.

Source of the values: US8324245B2, “Quinoline derivative and quinazoline derivative inhibiting self-phosphorylation of hepatocytus proliferator receptor, and medicinal composition containing the same” (Kyowa Hakko Kirin Co., Ltd., priority 2001, dated 2012).
